What follows are molecules tested against T1, human wild-type (WT)-pendrin (Homo sapiens, UniProt O43511) (assay: Pendrin-mediated Cl^−/I^− exchange activity, YFP fluorescence in CHO-K1 cells). Settings: 30 μM.
T1 construct: expressed in transfected cells
T1 sequence (O43511 1-780): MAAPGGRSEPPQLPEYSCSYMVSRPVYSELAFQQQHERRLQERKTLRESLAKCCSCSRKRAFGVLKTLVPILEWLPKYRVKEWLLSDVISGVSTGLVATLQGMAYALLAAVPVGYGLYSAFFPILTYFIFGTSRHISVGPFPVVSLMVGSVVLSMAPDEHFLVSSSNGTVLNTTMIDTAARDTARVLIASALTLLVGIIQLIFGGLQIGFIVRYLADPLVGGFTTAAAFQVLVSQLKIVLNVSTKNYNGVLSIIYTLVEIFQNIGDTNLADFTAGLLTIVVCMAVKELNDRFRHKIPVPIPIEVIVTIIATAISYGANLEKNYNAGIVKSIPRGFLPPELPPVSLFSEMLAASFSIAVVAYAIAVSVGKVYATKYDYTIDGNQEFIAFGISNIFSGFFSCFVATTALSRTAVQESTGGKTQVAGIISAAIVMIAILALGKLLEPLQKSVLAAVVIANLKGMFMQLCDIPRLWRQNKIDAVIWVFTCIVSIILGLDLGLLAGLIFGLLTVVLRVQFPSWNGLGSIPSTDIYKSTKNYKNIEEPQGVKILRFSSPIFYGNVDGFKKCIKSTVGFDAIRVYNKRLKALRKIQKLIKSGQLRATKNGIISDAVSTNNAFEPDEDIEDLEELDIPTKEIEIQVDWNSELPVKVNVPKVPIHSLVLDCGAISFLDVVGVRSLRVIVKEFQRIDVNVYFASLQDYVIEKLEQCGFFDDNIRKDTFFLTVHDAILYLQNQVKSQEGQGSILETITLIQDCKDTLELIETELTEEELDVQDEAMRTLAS
Assay type: cell-based
Method: Chinese hamster ovary (CHO)-K1 cells were maintained in a DMEM medium containing 10% fetal bovine serum (FBS), 100 units/ml penicillin and 100 100 μg/ml streptomycin. CHO-K1 cells were stably transfected with pcDNA3.1 encoding halide sensor YFP-H148Q/I152L/F46L and human wild-type (WT)-pendrin. For distribution of primary culture of human nasal cavity epithelium (HNE) cells, passage-2 cells were seeded into transwell-transparent culture inserts with a pore size of 0.45 μm (Costar Co., Cambridge, MA) at a density of 2×10^5 cells/cm^2. The cells were maintained in a 1:1 mixture of Dulbecco's modified Eagle's medium (Lonza, Walkersville, MD) and bronchial epithelial growth medium (Lonza) supplemented with the following growth factors according to the manufacturer's instructions. After immersing the cells for the first 7 days, they were exposed to the apical air interface for the remainder of the culture period. After establishment of the air-liquid interface, the cells were used between 14 and 21 days. At all stages of culture, the cells were maintained at 37° C. under 5% CO2 in an air incubator.
CHO-K1 cells expressing human WT pendrin and YFP-F46L/H148Q/I152L were plated on a 96-well microplate at a density of 2×10^4 cells per well and cultured for 48 hours. Each well of the cell cultured 96-well plate was washed with PBS of 200 μL twice and was filled with HEPES buffer solution of 50 μL, respectively. […] After culturing at 37° C. for 10 minutes, the 96-well plate was positioned on FLUOstar Omega microplate reader (BMG Labtech, Ortenberg, Germany) for fluorescence analysis. By continuously (400 ms per point) recording fluorescence for 1 second (base line), each well was individually analyzed for pendrin-mediated I^− inflow, and then at 1 second, 50 μL of NaI-substituted HEPES buffer solution (NaI replacing NaCl) was added using a liquid injector and the YFP fluorescence was recorded for 5 seconds. The initial iodide inflow rate was determined from the initial slope of fluorescence by nonlinear regression, after injection the iodide (See FIG. 1).
For measurement of Cl^−/I^− exchange activity, YFP fluorescence was measured in pendrin and halide sensor YFP expressing CHO-K1 cells. Each well of the cell cultured 96-well plate was washed with PBS of 200 μL twice, and was filled with HEPES buffer solution (140 mM NaCl, 5 mM KCl, 1 mM MgCl2, 1 mM CaCl2, 10 mM glucose and 10 mM HEPES (pH 7.4)), respectively. […] After culturing at 37° C. for 10 minutes, the 96-well plate was positioned on FLUOstar Omega microplate reader (BMG Labtech, Ortenberg, Germany) for fluorescence analysis.
By continuously (400 ms per point) recording fluorescence for 1 second (base line), each well was individually analyzed for pendrin-mediated I^− inflow, and then at 1 second, 50 μL of NaI-substituted HEPES buffer solution (140 mM NaI, 5 mM KCl, 1 mM MgCl2, 1 mM CaCl2, 10 mM glucose and 10 mM HEPES (pH 7.4)) was added using a liquid injector and the YFP fluorescence was recorded for 5 seconds. The initial iodide inflow rate was determined from the initial slope of fluorescence by nonlinear regression, after injection the iodide.

| SMILES | Pendrin inhibitory activity at 30 μM (%) |
| --- | --- |
| O=C(O)C(=Cc1ccco1)NC(=O)c1ccc(Br)cc1 [G16, 2-(4-Bromobenzamido)-3-(furan-2-yl)acrylate] | 1.8 |

Same assay, conditions: CHO-K1, 30 μM; read-out: Pendrin inhibitory activity at 30 μM (%)

| SMILES | inhibition at 30 µM [%] |
| --- | --- |
| CCCCOc1ccc(C(=O)NC(=Cc2ccc[nH]2)C(=O)O)cc1 [G41, 2-(4-Butoxybenzamido)-3-(1H-pyrrol-2-yl)acrylate] | 25.1 |
| CC(C)(C)c1ccc(C2=NC(=Cc3cccnc3)C(=O)O2)cc1 [F40, 2-(4-(tert-butyl)phenyl)-4-(pyridin-3-ylmethylene)oxazol-5(4H)-one] | 92.3 |
| CC(C)(C)c1ccc(C2=NC(=Cc3cc4ccccc4s3)C(=O)O2)cc1 [F11, 4-(Benzo[b]thiophen-2-ylmethylene)-2-(4-(tert-butyl)phenyl)oxazol-5 (4H)-one] | 3.6 |
| Cc1ncsc1C=C(NC(=O)c1cccc2ccccc12)C(=O)O [G27, 2-(1-Naphthamido)-3-(4-methylthiazol-5-yl)acrylate] | 2.2 |
| COC(=O)c1ccc(C2=NC(=Cc3ccsc3)C(=O)O2)cc1 [F32, Methyl 4-(5-oxo-4-(thiophen-3-ylmethylene)-4,5-dihydrooxazol-2-yl)benzoate] | 3.7 |
| COc1cc(C=C2N=C(c3ccccc3OC)OC2=O)ccc1OCc1c(C)noc1C [F133, 4-(4-((3,5-Dimethylisoxazol-4-yl)methoxy)-3-methoxybenzylidene)-2-(2-methoxyphenyl)oxazol-5 (4H)-one] | 4.1 |
| CC(=O)Nc1ccc(C2=NC(=Cc3ccc(-n4cncn4)cc3)C(=O)O2)cc1 [F134, N-(4-(4-(4-(1H-1,2,4-thiazol-1-yl)benzylidene)-5-oxo-4,5-dihydrooxazol-2-yl)phenyl)acetamide] | 3.4 |
| CC(C)(C)c1ccc(C2=NC(=Cc3ccccc3OS(=O)(=O)c3ccccc3)C(=O)O2)cc1 [F80, 2-((2-(4-(tert-butyl)phenyl)-5-oxooxazol-4(5H)-ylidene)methyl)phenylbenznesulfonate] | 1.9 |
| C=CCOc1cc(N(CC)CC)ccc1C=C1N=C(c2ccc(NC(=O)c3cncc(Br)c3)cc2)OC1=O [F66, N-(4-(4-(2-(Allyloxy)-4-(diethylamino)benzylidene)-5-oxo-4,5-dihydrooxazol-2-yl)phenyl)-5-bromonicotinamide] | 2.3 |
| Cc1cc(C)cc(C(=O)NC(=Cc2cccs2)C(=O)O)c1 [G42, 2-(3,5-Dimethylbenzamido)-3-(thiophen-2-yl)acrylate] | 2.7 |
| O=C1OC(c2ccc(Cl)cc2)=NC1=Cc1cccs1 [F88, 2-(4-Chlorophenyl)-4-(thiophen-2-ylmethylene)oxazol-5(4H)-one] | 2.4 |
| O=C1OC(c2ccc(C(F)(F)F)cc2)=NC1=Cc1cccs1 [F1, 4-(thiophen-2-ylmethylene)-2-(4-(trifluoromethyl)phenyl)oxazol-5 (4H)-one] | 2.6 |
| Cc1ccc(C2=NC(=Cc3cccs3)C(=O)O2)cc1I [F63, 2-(3-Iodo-4-methylphenyl)-4-(thiophen-2-ylmethylene)oxazol-5(4H)-one] | 1.6 |
| CCCCc1ccc(C(=O)NC(=Cc2ccc[nH]2)C(=O)OC)cc1 [G11, Methyl 2-(4-butylbenzamido)-3-(1H-pyrrol-2-yl)acrylate] | 3.5 |
| CCCc1ccc(C2=NC(=Cc3cccs3)C(=O)O2)cc1 [F144, 2-(4-Propylphenyl)-4-(thiophen-2-ylmethylene)oxazol-5(4H)-one] | 21.3 |
| COc1ccc(C2=NC(=Cc3ccc(C(=O)O)cc3)C(=O)O2)cc1 [F60, 4-((2-(4-Methoxyphenyl)-5-oxooxazol-4(5H)-ylidene)methyl)benzoate] | 3.1 |
| CC(=O)Nc1ccc(C2=NC(=Cc3cccs3)C(=O)O2)cc1 [F33, N-(4-(5-oxo-4-(thiophen-2-ylmethylene)-4,5-dihydrooxazol-2-yl)phenyl)acetamide] | 88.7 |
| CC(C)Cc1ccc(C2=NC(=Cc3ccsc3)C(=O)O2)cc1 [F15, 2-(4-Isobutylphenyl)-4-(thiophen-3-ylmethylene)oxazol-5 (4H)-one] | 3.8 |
| Cn1cc(C=C2N=C(c3ccc(C(C)(C)C)cc3)OC2=O)cn1 [F39, 2-(4-(tert-butyl)phenyl)-4-((1-methyl-1H-pyrazol-4-yl)methylene)oxazol-5(4H)-one] | 58.8 |
| CC(=O)Nc1ccc(C2=NC(=Cc3ccc(N(C)C)s3)C(=O)O2)cc1 [F108, N-(4-(4-((5-(dimethylamino)thiophen-2-yl)methylene)-5-oxo-4,5-dihydrooxazol-2-yl)phenyl) acetamide] | 2.3 |
| CC(C)c1ccc(C2=NC(=Cc3csc4ccccc34)C(=O)O2)cc1 [F16, 4-(Benzo[b]thiophen-3-ylmethylene)-2-(4-isopropylphenyl)oxazol-5(4H)-one] | 3.1 |
| O=C1OC(c2ccccc2)=NC1=Cc1ccc(OC(=O)c2ccco2)cc1 [F78, 4-((5-oxo-2-phenyloxazol-4(5H)-ylidene)methyl)phenylfuran-2-carboxylate] | 1.7 |
| COc1ccc(C2=NC(=C3C=C(c4cccs4)Oc4ccccc43)C(=O)O2)cc1 [F75, 2-(4-Methoxyphenyl)-4-(2-(thiophen-2-yl)-4H-chromen-4-ylidene)oxazol-5 (4H)-one] | 2.3 |
| COc1ccccc1C1=NC(=Cc2sc3nc(C)nc(C)c3c2C)C(=O)O1 [F113, 2-(2-Methoxyphenyl)-4-((2,4,5-trimethylthieno[2,3-d]pyrimidin-6-yl)methylene) oxazol-5(4H)-one] | 3.5 |
| CC(C)(C)OC(=O)n1cc(C=C2N=C(c3ccc(C(C)(C)C)cc3)OC2=O)c2ccccc21 [F4, tert-butyl 3-((2-(4-(tert-butyl)phenyl)-5-oxooxazol-4(5H)-ylidene)methyl)-1H-indol-1-carboxylate] | 2.6 |
| COc1ccc2[nH]c(=O)c(C=C3N=C(c4ccccc4)OC3=O)cc2c1 [F84, 4-((6-Methoxy-2-oxo-1,2-dihydroquinolin-3-yl)methylene)-2-phenyloxazol-5(4H)-one] | 3.4 |
| O=C1OC(c2cccs2)=NC1=Cc1ccc(N2CCCCC2)s1 [F120, 4-((5-(Piperidin-1-yl)thiophen-2-yl)methylene)-2-(thiophen-2-yl)oxazol-5 (4H)-one] | 1.9 |
| CC(=O)Oc1ccc(C=C2N=C(c3ccc(C(C)(C)C)cc3)OC2=O)cc1 [F58, 4-((2-(4-(tert-butyl)phenyl)-5-oxooxazol-4 (5H)-ylidene)methyl)phenylacetate] | 2.5 |
| O=C(O)C(=Cc1cccs1)NC(=O)c1ccc(OC(F)F)cc1 [G39, 2-(4-(Difluoromethoxy)benzamido)-3-(thiophen-2-yl)acrylate] | 3.2 |

Same assay, conditions: compounds showing pendrin inhibitory activity of 50% or more at 30 μM; read-out: IC50

| SMILES | IC50 [µM] |
| --- | --- |
| CC(=O)Nc1ccc(C2=NC(=Cc3cccs3)C(=O)O2)cc1 [F33, N-(4-(5-oxo-4-(thiophen-2-ylmethylene)-4,5-dihydrooxazol-2-yl)phenyl)acetamide] | 9.3 ± 0.68 |
| Cn1cc(C=C2N=C(c3ccc(C(C)(C)C)cc3)OC2=O)cn1 [F39, 2-(4-(tert-butyl)phenyl)-4-((1-methyl-1H-pyrazol-4-yl)methylene)oxazol-5(4H)-one] | 25.8 ± 2.16 |

— patent US12691101B2, “Compound and method for preventing or treating of respiratory diseases comprising the same as an active ingredient” (YONSEI UNIVERSITY, UNIVERSITY - INDUSTRY FOUNDATION (UIF), priority 2019, dated 2026)
